Assay results published in US8318898B2, “Synthetic peptides for use as inhibitors of neurotransmitter secretion and as inducers of cellular relaxation” (Universite de Lausanne, priority 2005, dated 2012).
Where two headings read alike, the source gives them in different places.

Tests used:
PC12 cells [1] = test: Inhibition of [3H]norepinephrine neurosecretion by PC12 cells; type: cell-based, rat; conditions: for inhibition of secretion, stability test: 100 μM
Experimental: Using the neurosecretion assay described above, peptides fused to the TAT-PTD (L-TAT) were tested for inhibition of neurotransmitters and compared to use of L-TAT alone (SEQ ID NO: 3). In vitro screening for synthetic peptides capable of efficiently and selectively blocking neurotransmitter release in the PC12 cell line grown under defined conditions was performed.
PC12 cells were washed with DMEM-WM (Dulbecco's Modified Eagle Medium (GIBCO cat. no. 31968) completed with 25 units of penicillin and streptomycin each) and loaded for 1-2 h with [^3H] norepinephrine (NE; 0.5 μCi/ml) in DMEM-CM (DMEM-WM complemented with 6% horse serum and 6% fetal calf serum). Cells were washed for 1 h with DMEM-WM, and then washed 2 times at 5-minute intervals. Basal release was determined by a 15-minutes incubation with CaSB-glucose 5 mM K^+ (CaSB-glucose: 140 mM NaCl, 5 mM KCl, 2 mM CaCl2, 11 mM glucose, [pH 7.4]). The peptides were added to the cells at defined concentrations after loading with NE but before induction of secretion. Cells were depolarized with 85 mM K^+ (CaSB-glucose with Na^+ reduced accordingly) for 15 minutes to determine stimulated release. Superfusate (1 ml) was removed to tubes. Adherent cells were solubilized in CaSB-glucose-0.1% Triton (1 ml/well). The quantities of released and non-released radiolabeled neurotransmitter were determined by liquid scintillation counting of cleared superfusates and cell lysates, respectively. Total uptake was calculated by addition of released and retained radioactivity, and the percentage release was as calculated (released counts/total uptake counts)×100. Results were also expressed as percent inhibition of neurosecretion.

PC12-ES cells = test: Evoked neurotransmitter secretion by undifferentiated PC12-ES cells, furin inhibitor and arginine rich peptides; type: cell-based, rat; conditions: potassium 80 mM, 15 minutes
PC12 cells [2] = type: cell-based, rat
Experimental: […]. Very little toxicity was present at 24 hours, and cytotoxicity at 48 hours was only slightly greater than at 24 hours. Cytotoxicity generally dipped to approximately 90% live cells when peptides were administered at 500 μM.

Recombinant furin = Recombinant furin (Homo sapiens, UniProt P09958); test: biochemical; type: biochemical
Experimental: To determine if the peptides described herein have an effect on the activity of PC enzymes which are involved in a condition or disorder such as fibrosis, the effect of the peptides on furin activity in vitro was measured as percent inhibition of cleavage of the furin substrate fluorogenic t-butyloxycarbonyl (Boc)-RVRR-7-amino-4-methylcoumarin (MCA).
All in vitro enzyme studies were performed at room temperature in a final volume of 50-100 μl in 96-well flat-bottom black plates. The buffer consisted of 100 mM HEPES, 1 mM CaCl2, 0.5% TritonX-100, and 1 mM 2-β-mercaptoethanol pH 7.5. Assays were performed using Boc-RVRR-MCA as fluorogenic substrate at 100 μM. Recombinant furin (0.8 U of activity) was incubated with Boc-RVRR-MCA in the presence or absence of varying concentrations of synthetic peptides D-9Rac/am (SEQ ID NO. 15), L-Bel1 (SEQ ID NO. 3), or L-9K (SEQ ID NO. 6). One unit of activity is defined as the amount of furin that can release 1 μmol of MCA from the fluorogenic Boc-RVRR-MCA per min at 30° C. The release of highly fluorescent 7-amino 4-methyl coumarin (MCA) from the Boc-RVRR-MCA was monitored by a spectrofluorometer instrument at excitation and emission wavelengths of 370 nm/460 nm. […]

PC-12 cells = test: Actin cytoskeleton organization, phalloidin-TRITC staining; type: cell-based, rat
Experimental: Slides with PC-12 cells were prepared as stated previously for localization studies. Briefly, cells were exposed to FITC-labeled or unlabeled peptides, at various concentrations, for 30 minutes, fixed and then permeabilized. Subsequently, F-actin was fluorescently labeled with phalloidin-Tetramethyl Rhodamine Iso-Thiocyanate (TRITC) (Sigma Aldrich) conjugate, diluted on saponin buffer (0.25 μg/ml), and nuclear staining with DAPI dihydrochloride (Sigma Aldrich) (0.02 μg/ml), at room temperature for maximum 30 minutes. Finally, slides were mounted and sealed, and stored at 4° C. protected from light. The effect of the peptides to actin polymerization was analyzed by confocal microscopy, as described before.

[3] = system: smooth muscle cell line (A7r5); test: Cell contraction/relaxation on silicon sheet, smooth muscle cells; type: cell-based
Experimental: Lung biopsy was obtained from a Sprague Dawley rat, divided in small tissue slices, placed in culture dishes, and maintained then in organ culture in Dulbecco's modified Eagle's medium (GibcoBRL, Life Technologie) containing 10% decomplemented fetal bovine serum (FBS) supplemented with 100 U/ml penicillin, 100 μg/ml streptomycin, 4 mM I-glutamine, at 37° C., in 5% CO2. Cells were maintained during 2-3 weeks (2-8 passages), replacing medium frequently. At confluence, cells were detached from the culture dish with 0.125% trypsin-EDTA mixture (Sigma) for 10 minutes at 37° C., resuspended in complete medium, and seeded over silicon-coated tissue culture dishes at 3.5×10^3 cells/cm^2. One to two days after, cells were treated with the appropriate peptide at 10 or 50 μM, and peptide-induced cell contraction/relaxation effect followed for 1-3 hours by live videomicroscopy. A smooth muscle cell line (A7r5) kept in similar conditions was also used to follow the peptide-induced effects on these cells grown over silicon sheet.
Live videomicroscopy was performed under controlled temperature and CO2 conditions using a Zeiss Axiovert 200M (Zeiss, Oberkochem, Germany), equipped with a spinning disk Nipkow confocal head (Yokogawa CSU10), Photometrics CoolSNAP-HQ CCD camera and Metamorph 6.0 acquisition software (Visitron Systems, Puchheim, Germany). […]

lung fibroblasts = test: Stressed collagen lattice contraction assay; type: cell-based, rat; conditions: peptide 60 minutes before gel release; compared to control gels and L-9K treated gels; preliminary

Chain of Recombinant furin (P09958 108-794): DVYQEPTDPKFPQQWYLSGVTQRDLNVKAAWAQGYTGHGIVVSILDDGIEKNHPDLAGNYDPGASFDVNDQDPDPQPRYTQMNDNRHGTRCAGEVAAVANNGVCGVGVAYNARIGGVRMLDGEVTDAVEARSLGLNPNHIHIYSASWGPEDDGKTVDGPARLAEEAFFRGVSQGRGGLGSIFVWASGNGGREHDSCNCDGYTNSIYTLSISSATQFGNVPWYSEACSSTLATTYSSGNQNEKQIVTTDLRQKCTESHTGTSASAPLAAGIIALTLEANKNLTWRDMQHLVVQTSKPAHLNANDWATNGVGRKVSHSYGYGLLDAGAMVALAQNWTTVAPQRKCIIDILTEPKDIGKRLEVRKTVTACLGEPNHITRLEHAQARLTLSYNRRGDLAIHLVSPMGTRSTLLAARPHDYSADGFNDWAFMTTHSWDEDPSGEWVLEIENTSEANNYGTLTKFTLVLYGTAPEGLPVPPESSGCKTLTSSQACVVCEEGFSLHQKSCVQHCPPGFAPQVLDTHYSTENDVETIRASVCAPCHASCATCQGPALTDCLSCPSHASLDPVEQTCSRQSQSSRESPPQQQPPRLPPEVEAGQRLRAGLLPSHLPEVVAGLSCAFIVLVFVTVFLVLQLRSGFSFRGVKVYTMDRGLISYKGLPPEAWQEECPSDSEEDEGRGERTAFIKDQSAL

## N=C(N)NCCC[C@H](NC(=O)CNC(=O)[C@H](Cc1ccc(O)cc1)NC(=O)CN)C(=O)N[C@@H](CCCCN)C(=O)N[C@@H](CCCCN)C(=O)N[C@@H](CCCNC(=N)N)C(=O)N[C@@H](CCCNC(=N)N)C(=O)N[C@@H](CCC(N)=O)C(=O)N[C@@H](CCCNC(=N)N)C(=O)N[C@@H](CCCNC(=N)N)C(=O)N[C@@H](CCCNC(=N)N)C(=O)NCC(=O)O [L-Tat]
PC12 cells [1]
  dose dependence of inhibition of neurosecretion: dose dependent inhibition
PC12 cells [1]; 0 hours
  inhibition of secretion, stability test: 50%
PC12 cells [1]; 1 hour
  inhibition of secretion, stability test: 38%
PC12 cells [1]; 24 hours
  inhibition of secretion, stability test: 35%
PC12 cells [1]; 48 hours
  inhibition of secretion, stability test: 39%
PC12 cells [1]; No Serum
  inhibition of secretion, stability test: 65%
PC12 cells [1]; listed as L-Bel1
  dose dependence of inhibition of neurosecretion: dose dependent
PC12 cells [1]; peptide 10 μM
  inhibition of PC12 neurotransmitter secretion: >20%
PC12 cells [1]; peptide 50 μM
  inhibition of PC12 neurotransmitter secretion: 50%
PC12 cells [1]; peptide 100 μM
  inhibition of PC12 neurotransmitter secretion: 55%
PC12 cells [1]; peptide 100 μM, listed as L-Bel1
  inhibition of PC12 neurotransmitter secretion: more than 60%
PC12 cells [1]; peptide 250 μM
  inhibition of PC12 neurotransmitter secretion: 70%
PC12-ES cells; 10 μM
  inhibition of evoked neurotransmitter secretion by PC12-ES cells: 24.6%
PC12-ES cells; 100 μM
  inhibition of evoked neurotransmitter secretion by PC12-ES cells: 56.4%
PC12 cells [2]
  cytotoxicity (MTT): no marked cytotoxicity
Recombinant furin
  concentration for complete blockade of cleavage of Boc-RVRR-MCA by furin: 3.5 µM
Recombinant furin; Boc-RVRR-MCA 100 μM as substrate
  inhibition of in vitro furin activity (in words): inhibited to completion
Recombinant furin; furin, Boc-RVRR-MCA substrate, read-out: Ki(app)
  Ki: 370 nM
PC-12 cells; 100 μM
  effect on actin content and organization at higher concentration: almost lost
PC-12 cells; 2 to 10 μM, 30 minutes, labeled or unlabeled
  effect on actin content and organization: decreased actin content and organization
[3]
  relaxing effect on smooth muscle cells: same effect
Lung fibroblasts
  myofibroblast-mediated collagen gel contraction: decrease
